In patent US6737383B1, “Herbicidal oxadiazolidines” (priority 1999, dated 2004):

What was measured:
bedstraw = assay: Test B pre/postemergence bedstraw; format: in vivo, Galium aparine
Summary of the method: (§1)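 Response is a visual 0-to-10 score relative to untreated plants, where 0 means no effect and 10 means complete control, taken twelve to sixteen days after application. Treatments went onto soil at planting and onto foliage of 1- to 4-leaf plants, using a surfactant-containing non-phytotoxic solvent.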

blackgrass = assay: Test B pre/postemergence blackgrass; format: in vivo, Alopecurus myosuroides
Summary of the method: as §1

surinam grass = assay: Test B pre/postemergence surinam grass; format: in vivo, Brachiaria decumbens
Summary of the method: as §1

cocklebur = assay: Test B pre/postemergence cocklebur; format: in vivo, Xanthium strumarium
Summary of the method: as §1

corn = assay: Test B pre/postemergence corn; format: in vivo, Zea mays
Summary of the method: as §1

crabgrass = assay: Test B pre/postemergence crabgrass; format: in vivo, Digitaria sanguinalis
Summary of the method: as §1

giant foxtail = assay: Test B pre/postemergence giant foxtail; format: in vivo, Setaria faberii
Summary of the method: as §1

rape = assay: Test B pre/postemergence rape; format: in vivo, Brassica napus
Summary of the method: as §1

soybean = assay: Test B pre/postemergence soybean; format: in vivo, Glycine max
Summary of the method: as §1

sugar beet = assay: Test B pre/postemergence sugar beet; format: in vivo, Beta vulgaris
Summary of the method: as §1

velvetleaf = assay: Test B pre/postemergence velvetleaf; format: in vivo, Abutilon theophrasti
Summary of the method: as §1

wheat = assay: Test B pre/postemergence wheat; format: in vivo, Triticum aestivum
Summary of the method: as §1

purple nutsedge = assay: Test B pre/postemergence purple nutsedge; format: in vivo, Cyperus rotundus
Summary of the method: as §1

rice = assay: Test B flood test rice; format: in vivo, Oryza sativa
Summary of the method: (§2)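 Read-out is a visual response score from 0 (no effect) to 10 (complete control), assigned by comparison with untreated controls. Treatment was applied at the 2-leaf stage, and plants stayed in the greenhouse for twelve to sixteen days before scoring.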

smallflower flatsedge = assay: Test B flood test smallflower flatsedge; format: in vivo, Cyperus difformis
Summary of the method: as §2

duck salad = assay: Test B flood test duck salad; format: in vivo, Heteranthera limosa
Summary of the method: as §2

bamyardgrass = assay: Test B flood test barnyardgrass; format: in vivo, Echinochloa crus-galli
Summary of the method: as §2

[1] = Postemergence, Rate 62 g/ha, scale 0 to 10, 0 is no effect, 10 is complete control
[2] = Postemergence, Rate 250 g/ha, scale 0 to 10, 0 no effect, 10 complete control
[3] = Preemergence, Rate 62 g/ha, scale 0 to 10 (0 no effect, 10 complete control)
[4] = Preemergence, Rate 125 g/ha, scale 0 to 10 (0 no effect, 10 complete control)
[5] = Preemergence, Rate 250 g/ha, scale of 0 to 10 where 0 is no effect and 10 is complete control
[6] = Preemergence, Rate 500 g/ha, scale 0 (no effect) to 10 (complete control)
[7] = Rate 125 g/ha, Postemergence, scale 0 to 10, 0 no effect, 10 complete control
[8] = Rate 500 g/ha, Postemergence, scale 0 to 10, 0 no effect, 10 complete control
[9] = Rate 62 g/ha, headed Pre-emergence (flood test species), scale 0 to 10 (0 no effect, 10 complete control)
[10] = Rate 125 g/ha, Pre-emergence, flood test species, scale 0 to 10 where 0 is no effect and 10 is complete control
[11] = Rate 250 g/ha, headed Pre-emergence (flood test species), scale 0 to 10 (0 no effect, 10 complete control)
[12] = Rate 500 g/ha, headed Pre-emergence (flood test species), scale 0 to 10 (0 no effect, 10 complete control)

CCN(Cc1ccccc1)C(=O)n1oc(=O)n(-c2c(C)cccc2C)c1=O [Compound 70]
0: Bedstraw plant response rating (bedstraw; [1]) | Bedstraw plant response rating (bedstraw; [2]) | Bedstraw plant response rating (bedstraw; [3]) | Plant response rating, Bedstraw (bedstraw; [4]) | Plant response rating, Bedstraw (bedstraw; [5]) | Bedstraw plant response rating (bedstraw; [6]) | Bedstraw plant response rating (bedstraw; [7]) | Bedstraw plant response rating (bedstraw; [8]) | Blackgrass plant response rating (blackgrass; [1]) | Blackgrass plant response rating (blackgrass; [2]) | Blackgrass plant response rating (blackgrass; [3]) | Plant response rating, Blackgrass (blackgrass; [4]) | Plant response rating, Blackgrass (blackgrass; [5]) | Blackgrass plant response rating (blackgrass; [6]) | Blackgrass plant response rating (blackgrass; [7]) | Blackgrass plant response rating (blackgrass; [8]) | B. signalgrass plant response rating (surinam grass; [1]) | B. signalgrass plant response rating (surinam grass; [2]) | B. signalgrass plant response rating (surinam grass; [3]) | Plant response rating, B. signalgrass (surinam grass; [4]) | Plant response rating, B. signalgrass (surinam grass; [5]) | B. signalgrass plant response rating (surinam grass; [6]) | B. signalgrass plant response rating (surinam grass; [7]) | B. signalgrass plant response rating (surinam grass; Rate 500 g/ha, Postemergence, scale of 0 to 10 where 0 is no effect and 10 is complete control) | Cocklebur plant response rating (cocklebur; [1]) | Cocklebur plant response rating (cocklebur; [2]) | Cocklebur plant response rating (cocklebur; [3]) | Plant response rating, Cocklebur (cocklebur; [4]) | Plant response rating, Cocklebur (cocklebur; [5]) | Cocklebur plant response rating (cocklebur; [6]) | Cocklebur plant response rating (cocklebur; [7]) | Cocklebur plant response rating (cocklebur; [8]) | Corn plant response rating (corn; [1]) | Corn plant response rating (corn; [2]) | Corn plant response rating (corn; [3]) | Plant response rating, Corn (corn; [4]) | Plant response rating, Corn (corn; [5]) | Corn plant response rating (corn; [6]) | Corn plant response rating (corn; [7]) | Corn plant response rating (corn; [8]) | Crabgrass plant response rating (crabgrass; [1]) | Crabgrass plant response rating (crabgrass; [2]) | Crabgrass plant response rating (crabgrass; [3]) | Plant response rating, Crabgrass (crabgrass; [4]) | Plant response rating, Crabgrass (crabgrass; [5]) | Crabgrass plant response rating (crabgrass; [6]) | Crabgrass plant response rating (crabgrass; [7]) | Crabgrass plant response rating (crabgrass; [8]) | Giant foxtail plant response rating (giant foxtail; [1]) | Giant foxtail plant response rating (giant foxtail; [2]) | Giant foxtail plant response rating (giant foxtail; [3]) | Plant response rating, Giant foxtail (giant foxtail; [4]) | Plant response rating, Giant foxtail (giant foxtail; [5]) | Giant foxtail plant response rating (giant foxtail; [6]) | Giant foxtail plant response rating (giant foxtail; [7]) | Giant foxtail plant response rating (giant foxtail; [8]) | Rape plant response rating (rape; [1]) | Rape plant response rating (rape; [2]) | Rape plant response rating (rape; [3]) | Plant response rating, Rape (rape; [4]) | Plant response rating, Rape (rape; [5]) | Rape plant response rating (rape; [6]) | Rape plant response rating (rape; [7]) | Rape plant response rating (rape; [8]) | Soybean plant response rating (soybean; [1]) | Soybean plant response rating (soybean; [2]) | Soybean plant response rating (soybean; [3]) | Plant response rating, Soybean (soybean; [4]) | Plant response rating, Soybean (soybean; [5]) | Soybean plant response rating (soybean; [6]) | Soybean plant response rating (soybean; [7]) | Soybean plant response rating (soybean; [8]) | Sugarbeets plant response rating (sugar beet; [1]) | Sugarbeets plant response rating (sugar beet; [2]) | Sugarbeets plant response rating (sugar beet; [3]) | Plant response rating, Sugarbeets (sugar beet; [4]) | Plant response rating, Sugarbeets (sugar beet; [5]) | Sugarbeets plant response rating (sugar beet; [6]) | Sugarbeets plant response rating (sugar beet; [7]) | Sugarbeets plant response rating (sugar beet; [8]) | Velvetleaf plant response rating (velvetleaf; [1]) | Velvetleaf plant response rating (velvetleaf; [2]) | Velvetleaf plant response rating (velvetleaf; [3]) | Plant response rating, Velvetleaf (velvetleaf; [4]) | Plant response rating, Velvetleaf (velvetleaf; [5]) | Velvetleaf plant response rating (velvetleaf; [6]) | Velvetleaf plant response rating (velvetleaf; [7]) | Velvetleaf plant response rating (velvetleaf; [8]) | Wheat plant response rating (wheat; [1]) | Wheat plant response rating (wheat; [2]) | Wheat plant response rating (wheat; [3]) | Plant response rating, Wheat (wheat; [4]) | Plant response rating, Wheat (wheat; [5]) | Wheat plant response rating (wheat; [6]) | Wheat plant response rating (wheat; [7]) | Wheat plant response rating (wheat; [8]) | Nutsedge plant response rating (purple nutsedge; [1]) | Nutsedge plant response rating (purple nutsedge; [2]) | Nutsedge plant response rating (purple nutsedge; [3]) | Plant response rating, Nutsedge (purple nutsedge; [4]) | Plant response rating, Nutsedge (purple nutsedge; [5]) | Nutsedge plant response rating (purple nutsedge; [6]) | Nutsedge plant response rating (purple nutsedge; [7]) | Nutsedge plant response rating (purple nutsedge; [8]) | Rice plant response rating (rice; [9]) | Rice plant response rating (rice; [10]) | Rice plant response rating (rice; [11]) | Plant response rating, Rice (rice; [12]) | S. Flatsedge plant response rating (smallflower flatsedge; [9]) | S. Flatsedge plant response rating (smallflower flatsedge; [10]) | S. Flatsedge plant response rating (smallflower flatsedge; [11]) | Plant response rating, S. Flatsedge (smallflower flatsedge; [12]) | Ducksalad plant response rating (duck salad; [9]) | Ducksalad plant response rating (duck salad; [10]) | Ducksalad plant response rating (duck salad; [11]) | Plant response rating, Ducksalad (duck salad; [12]) | Barnyardgrass plant response rating (bamyardgrass; [9]) | Barnyardgrass plant response rating (bamyardgrass; [10]) | Barnyardgrass plant response rating (bamyardgrass; [11]) | Plant response rating, Barnyardgrass (bamyardgrass; [12])
